# Source: patent US8273775B2, “Non-steroidal brassinosteroid mimetic” (priority 2006, dated 2012)
# Test system: gene expression in Col-0 seedling shoots
# Assay: Microarray analysis (ATH1 Affymetrix) after BL or abrasin treatment
# Type: in vivo, Arabidopsis
# Protocol: FIG. 14: Clustering of gene expression profiles by QT-clust analysis. Clusters illustrating the major patterns of the data sets. Points: BIK-30: 30 μM abrasin 30 min; BL-30: 1 μM brassinolide 30 min; DMSO-30: control DMSO 30 min; BIK-120: 30 μM abrasin 120 min; BL-120: 1 μM brassinolide 120 min; DMSO-120: control DMSO 120 min.
# Col-0 seeds were germinated vertically on ½ MS medium for 7 days under 16 h light/8 h dark cycles. The seedlings were overlaid with liquid ½ MS medium containing 1 μM brassinolide (BL, Fuji Chemical Industries, Ltd., Toyama, Japan), 30 μM abrasin (BIK, ChemBridge Corporation) and DMSO and treated for 30 and 120 min. The shoot parts were collected for RNA isolation. All sampling points were performed in three independent experiments. RNA was extracted using RNeasy kit (Qiagene). […] total RNA per array was used to hybridise the ATH1 Affymetrix Arabidopsis arrays according to standard procedure. The overrepresentation analyses were performed using BiNGO software (Maere et al., 2005).
# We performed a microarray analysis using the Arabidopsis whole genome chip (Affymetix) to determine whether abrasin activated the expression of BR-inducible genes at transcriptional level. Wild-type Col-0 seedlings were exposed to 1 μM BL, 30 μM ABRASIN and DMSO (mock-treatment) for two time points (30 min and 120 min) and the shoot parts were collected for RNA isolation. The analysis of the variance of the normalized gene expression data took in account the variability parameters affecting the expression level: type of hormone treatment, duration of treatment and the interaction between these two.
compound,measurement,setting,value
"CC(C)[C@H](C)[C@@H](O)[C@H](O)[C@@H](C)[C@H]1CC[C@H]2[C@@H]3COC(=O)[C@H]4C[C@H](O)[C@H](O)C[C@]4(C)[C@H]3CC[C@]12C [BL, brassinolide, reference compound]",Fold-change of gene AT2G42380 (bZIP transcription factor family protein),"30 min, 265877_at, Cluster 6",0.81
same,Fold-change of gene AT2G45080 (cyclin family protein),"30 min, 266124_at, Cluster 8",0.84
same,Fold-change AT1G04330 expressed protein,120 min,1.30
same,Fold-change AT1G05470 endonuclease/exonuclease/phosphatase family protein,120 min,1.05
same,Fold-change AT1G06520 Encodes a membrane associated mitochondrial localized protein,120 min,3.11
same,Fold-change AT1G06570 4-hydroxyphenylpyruvate dioxygenase (HPD),120 min,0.27
same,Fold-change AT1G10550 xyloglucan:xyloglucosyl transferase,120 min,2.19
same,Fold-change AT1G12710 F-box family protein,120 min,2.11
same,Fold-change AT1G12750 rhomboid family protein,120 min,0.78
same,Fold-change AT1G14130 2-oxoglutarate-dependent dioxygenase,120 min,1.31
same,Fold-change AT1G14700 purple acid phosphatase,120 min,0.59
same,Fold-change AT1G16640 transcriptional factor B3 family protein,120 min,0.95
same,Fold-change AT1G17230 leucine-rich repeat family protein,120 min,0.38
same,"Fold-change AT1G18020; AT1G17990 [AT1G18020, 12-oxophytodienoate reductase,",120 min,0.50
same,Fold-change AT1G19320 pathogenesis-related thaumatin family protein,120 min,0.38
same,Fold-change AT1G20350 mitochondrial import inner membrane translocase subunit,120 min,1.08
same,Fold-change AT1G21050 expressed protein,120 min,0.22
same,Fold-change AT1G21760 F-box family protein,120 min,0.60
same,Fold-change AT1G22360 UDP-glucoronosyl/UDP-glucosyl transferase family protein,120 min,0.29
same,Fold-change AT1G23080 auxin efflux carrier protein (PIN7),120 min,0.48
same,"Fold-change AT1G26800 zinc finger (C3HC4-type RING finger) family protein,",120 min,6.09
same,Fold-change AT1G27730 zinc finger (C2H2 type) family protein,120 min,0.71
same,Fold-change AT1G28130 encodes an IAA-amido synthase,120 min,0.28
same,Fold-change AT1G28190 expressed protein,120 min,0.58
same,Fold-change AT1G28480 glutaredoxin family protein,120 min,1.38
same,Fold-change AT1G31040 zinc-binding protein-related,120 min,1.12
same,Fold-change AT1G31310 hydroxyproline-rich glycoprotein family protein,120 min,0.74
same,Fold-change AT1G31770 ABC transporter family protein,120 min,0.64
same,Fold-change AT1G32190 expressed protein,120 min,0.11
same,Fold-change AT1G32690 expressed protein,120 min,0.48
same,Fold-change AT1G36940 expressed protein,120 min,0.38
same,Fold-change AT1G49780 U-box domain-containing protein,120 min,0.28
same,"Fold-change AT1G53870; AT1G53890 [AT1G53870, expressed protein",120 min,0.77
same,Fold-change AT1G54050 17.4 kDa class III heat shock protein (HSP17.4-CIII),120 min,3.58
same,Fold-change AT1G54200 expressed protein,120 min,2.06
same,Fold-change AT1G55920 serine O-acetyltransferase,120 min,1.01
same,Fold-change AT1G57560 myb family transcription factor (MYB50),120 min,2.45
same,Fold-change AT1G59590 expressed protein,120 min,1.03
same,Fold-change AT1G59660 nucleoporin family proteinmily,120 min,3.15
same,Fold-change AT1G62300 WRKY family transcription factor,120 min,0.21
same,Fold-change AT1G63050 membrane bound O-acyl transferase (MBOAT) family protein,120 min,0.40
same,"Fold-change AT1G66160 U-box domain-containing protein,",120 min,1.22
same,Fold-change AT1G66890 expressed protein,120 min,0.34
same,Fold-change AT1G68330 expressed protein,120 min,1.74
same,Fold-change AT1G68810 basic helix-loop-helix (bHLH) family protein,120 min,0.83
same,Fold-change AT1G69160 expressed protein,120 min,0.59
same,Fold-change AT1G70990 proline-rich family protein,120 min,2.22
same,Fold-change AT1G71030 Encodes a putative myb family transcription factor,120 min,0.13
same,Fold-change AT1G72060 expressed protein,120 min,0.92
same,Fold-change AT1G72180 leucine-rich repeat transmembrane protein kinase,120 min,0.22
same,"Fold-change AT1G72800 nuM1-related, contains",120 min,2.85
same,Fold-change AT1G75270 dehydroascorbate reductase,120 min,1.66
same,Fold-change AT1G75500 nodulin MtN21 family protein,120 min,0.56
same,"Fold-change AT1G76240 expressed protein,",120 min,0.16
same,Fold-change AT1G76410 zinc finger (C3HC4-type RING finger),120 min,0.43
same,Fold-change AT1G79110 expressed protein,120 min,0.77
same,Fold-change AT1G79630 protein phosphatase 2C family protein,120 min,0.37
same,Fold-change AT1G80440 kelch repeat-containing F-box family protein,120 min,2.93
same,Fold-change AT2G01300 expressed protein,120 min,4.83
same,"Fold-change AT2G01990 expressed protein,",120 min,1.06
same,Fold-change AT2G04240 zinc finger (C3HC4-type RING finger) family protein,120 min,2.81
same,Fold-change AT2G05540 glycine-rich protein,120 min,0.46
same,"Fold-change AT2G12290; AT4G19700 [AT2G12290, expressed protein]; [AT4G19700, expressed protein]",120 min,0.55
same,Fold-change AT2G18010 auxin-responsive family protein (SAUR10),120 min,9.13
same,Fold-change AT2G19800 expressed protein,120 min,1.78
same,Fold-change AT2G22860 phytosulfokines 2 (PSK2),120 min,0.44
same,"Fold-change AT2G23180 cytochrome P450, putative",120 min,0.42
same,Fold-change AT2G23320 WRKY family transcription factor,120 min,0.50
same,Fold-change AT2G26530 expressed protein,120 min,0.86
same,Fold-change AT2G26710 cytochrome p450 family (BAS1),120 min,5.42
same,Fold-change AT2G28510 Dof-type zinc finger domain-containing protein,120 min,0.51
same,Fold-change AT2G29340 short-chain dehydrogenase/reductase (SDR) family protein,120 min,1.29
same,Fold-change AT2G29990 pyridine nucleotide-disulphide oxidoreductase family protein,120 min,0.48
same,Fold-change AT2G30070 potassium transporter (KUP1),120 min,0.38
same,Fold-change AT2G31230 encodes a member of the ERF (ethylene response factor),120 min,2.74
same,Fold-change AT2G34650 protein kinase PINOID (PID),120 min,3.26
same,Fold-change AT2G36220 expressed protein,120 min,2.62
same,Fold-change AT2G37590 Dof-type zinc finger domain-containing protein,120 min,1.19
same,Fold-change AT2G38470 WRKY family transcription factor,120 min,0.57
same,Fold-change AT2G39710 aspartyl protease family protein,120 min,1.00
same,"Fold-change AT2G40340; AT2G40350 [AT2G40340, encodes a member of the DREB subfamily A-2 of ERF/AP2",120 min,1.68
same,Fold-change AT2G41250 haloacid dehalogenase-like hydrolase family protein,120 min,0.44
same,Fold-change AT2G41640 expressed protein,120 min,1.43
same,Fold-change AT2G42280 basic helix-loop-helix (bHLH) family protein,120 min,0.41
same,"Fold-change AT2G43060 expressed protein, similar to cDNA bHLH transcription factor",120 min,0.36
same,Fold-change AT2G43280 far-red impaired responsive family protein,120 min,0.51
same,Fold-change AT2G43290 calmodulin-like protein (MSS3),120 min,2.99
same,Fold-change AT2G44130 kelch repeat-containing F-box family protein,120 min,6.30
same,Fold-change AT2G44500 expressed protein,120 min,2.06
same,Fold-change AT2G45210 auxin-responsive protein-related,120 min,0.21
same,Fold-change AT2G45680 TCP family transcription factor,120 min,0.82
same,Fold-change AT2G46225 Encodes a subunit of the WAVE complex,120 min,0.47
same,Fold-change AT2G47440 DNAJ heat shock N-terminal domain-containing protein,120 min,2.23
same,"Fold-change AT3G04210 disease resistance protein (TIR-NBS class), putative,",120 min,1.00
same,Fold-change AT3G09920 phosphatidylinositol-4-phosphate 5-kinase family protein,120 min,0.42
same,Fold-change AT3G12920 expressed protein,120 min,0.41
same,Fold-change AT3G13040 myb family transcription factor,120 min,0.54
same,Fold-change AT3G13510 expressed protein,120 min,0.83
same,Fold-change AT3G13980 expressed protein,120 min,0.45
same,Fold-change AT3G14370 protein kinase family protein,120 min,3.50
same,Fold-change AT3G14560 expressed protein,120 min,0.50
same,Fold-change AT3G16570 rapid alkalinization factor (RALF) family protein,120 min,0.87
same,Fold-change AT3G17860 expressed protein,120 min,0.74
same,Fold-change AT3G18830 polyol/cyclitol/monosaccharide-H+-symporte,120 min,1.14
same,Fold-change AT3G19380 U-box domain-containing protein,120 min,0.27
same,Fold-change AT3G23030 auxin-responsive protein/indoleacetic acid-induced protein 2 (IAA2),120 min,0.39
same,Fold-change AT3G23550 MATE efflux family protein,120 min,0.31
same,Fold-change AT3G25710 basic helix-loop-helix (bHLH) family protein,120 min,0.53
same,Fold-change AT3G25900 homocysteine S-methyltransferase 1 (HMT-1),120 min,2.22
same,Fold-change AT3G26910 hydroxyproline-rich glycoprotein family protein,120 min,0.60
same,Fold-change AT3G30180 cytochrome p450 enzyme,120 min,0.07
same,"Fold-change AT3G46880 expressed protein,",120 min,0.60
same,Fold-change AT3G47800 aldose 1-epimerase family protein,120 min,0.26
same,Fold-change AT3G48970 copper-binding family protein,120 min,0.59
same,Fold-change AT3G49810 U-box domain-containing protein,120 min,0.56
same,Fold-change AT3G50650 scarecrow-like transcription factor 7 (SCL7),120 min,1.82
same,Fold-change AT3G50660 steroid 22-alpha-hydroxylase (CYP90B1) (DWF4),120 min,0.02
same,Fold-change AT3G50750 brassinosteroid signalling positive regulator-related (BEH1),120 min,0.35
same,Fold-change AT3G52490 heat shock protein-related,120 min,1.08
same,Fold-change AT3G53810 lectin protein kinase,120 min,1.19
same,"Fold-change AT3G54950 patatin-related,",120 min,0.39
same,Fold-change AT3G55120 chalcone-flavanone isomerase,120 min,0.68
same,Fold-change AT3G55150 exocyst subunit EXO70 family protein,120 min,0.13
same,Fold-change AT3G55840 expressed protein,120 min,7.41
same,Fold-change AT3G61460 zinc finger (C3HC4-type RING finger) family protein (BRH1),120 min,0.43
same,Fold-change AT3G63300 expressed protein,120 min,1.13
same,Fold-change AT4G01680 myb family transcription factor (MYB55),120 min,0.14
same,Fold-change AT4G02410 lectin protein kinase family protein,120 min,0.59
same,"Fold-change AT4G08040 1-aminocyclopropane-1-carboxylate synthase, putative",120 min,0.02
same,Fold-change AT4G09460 myb family transcription factor,120 min,2.76
same,Fold-change AT4G12390 invertase/pectin methylesterase inhibitor family protein,120 min,0.66
same,Fold-change AT4G12410 auxin-responsive family protein,120 min,0.44
same,Fold-change AT4G14130 xyloglucan:xyloglucosyl transferase,120 min,0.08
same,Fold-change AT4G15975 zinc finger (C3HC4-type RING finger) family protein,120 min,1.05
same,Fold-change AT4G16146 expressed protein,120 min,0.55
same,Fold-change AT4G16563 aspartyl protease family protein,120 min,2.89
same,Fold-change AT4G16670 expressed protein,120 min,0.35
